Source: patent US20260191817A1, “FIBROBLAST MODULATORS IN STROMA-RICH TUMORS” (UNIVERSITEIT GENT, priority 2022, published 2026)

Tests used:
[1] = tested on: 13B2 hTERT, CT5.3 hTERT, HCA2 hTERT, MCF-7/6 and 4T1-Luc cells; test: 3D CellTiter-Glo Cell Viability Assay (spheroids); assay type: cell-based; conditions: 3D spheroids; up to 100 μM; 48 h
Description: The half maximal inhibitory concentration (IC50) of A1 was evaluated using a CellTiter-Glo® 2.0 Cell Viability Assay (cat. no. G9243, Promega) and a CellTiter-Glo® 3D Cell Viability Assay (cat. no. G9681, Promega). 13B2 hTERT cells (2D: 2×10^5, 3D: 8×10^4) were plated in each well of a Nunc™ MicroWell™ 96-Well, Nunclon Delta-Treated, Flat-Bottom Microplate (cat. no. 167008, Thermo Fisher Scientific) for 2D experiments or 96-well ULA plate (cat. no. MS-9096UZ, S-bio) in a volume of 90 μL/well. A1 was serially diluted in the appropriate medium to 10× the final concentrations. For each treatment condition, 10 μL was added to 3 replicate wells (final concentrations ranging from 1-100 μM) and plates were incubated for 48 h.
The CellTiter-Glo Cell Viability Assay was performed according to manufacturer's instructions. Briefly, the plates and the CellTiter-Glo® Reagent were equilibrated to room temperature (RT). The CellTiter-Glo® Reagent was added to each well in a 1:1 (v/v) ratio. For 2D experiments, cell lysis was induced by placing the plates on an orbital shaker for 2 min, followed by stabilization of the luminescent signal for 10 min. […] Afterwards, the luminescence was measured using a Synergy™ HTX Multi-Mode Microplate Reader (BioTek). The IC50 value was determined using the Graphpad Prism software. […]

4T1-Luc aggregates = test: Chick heart invasion (CHI) assay with 4T1-Luc aggregates; assay type: cell-based, mouse; conditions: 1 μM, in duplo
Description: Chick heart invasion assays were performed as described earlier (Bracke et al. 2014). Precultured heart fragments of 9-day-old chicken embryos were confronted with MCF-7/6 aggregates on top of a semi-solid agar at 37° C. overnight, after which the confronting pairs were cultured in suspension for 8 days at 37° C., 10% CO2 in presence or absence of a test compound (in duplo). This procedure can also be performed with aggregates of 4T1-Luc cells, for which the suspension culture of the confronting pairs is performed for 3.5 days. All compounds were evaluated at 1 μM and 100 nM; depending on the outcome higher or lower concentrations were subsequently evaluated. […] Sections of the confrontation cultures were stained with hematoxylin-eosin are blinded and scored by a trained person (Bracke et al., 2014).
In the chick heart invasion assay cancer cells are confronted with a fragment of normal tissue, so as not to neglect the contribution of the host tissue in the micro-ecosystem that governs tumor behavior. […] After eight days for MCF-7/6, or another period depending on the cell type, the interaction between the cancer cells and the PHF is evaluated histologically and classified along a 5-grades subjective scale (Bracke et al. 2014). […] Compounds that inhibit invasion of confronting cancer cells i.e. from III/IV to 0/I/II, are determined as anti-invasive. […]

With `COc1cc2oc(-c3ccc(F)cc3)cc(=O)c2c(OC)c1OC` [Compound B1, 2-(4-Fluorophenyl)-5,6,7-trimethoxy-4H-chromen-4-one] the “response of cells cultured as spheroids (viability)” value [1] was “no response” and the Histological invasion grade (4T1-Luc aggregates) was “II/II”.
`COc1cc(C(=O)/C=C/c2ccc(F)cc2)cc(OC)c1OC` [Compound A1, 3-(4-Fluorophenyl)-1-(3,4,5-trimethoxyphenyl)prop2-en-1-one] was tested, and the “response of cells cultured as spheroids (viability)” value [1] was “no response” and the Histological invasion grade (4T1-Luc aggregates) was “I/II-III”.
